Tested on: Acinetobacter baumannii clinical strains
Assay: Information of drug resistance of 10 clinical strains
Type: cell-based
Design: key: S: Drug Susceptible; I: Drug Intermediate; R: Drug Resistant

| Compound | Drug resistance (strain TNP041702) | Drug resistance (strain TNP041703) | Drug resistance (strain TNP041704) | Drug resistance (strain TNP041705) | Drug resistance (strain TNP041706) | Drug resistance (strain TNP041707) | Drug resistance (strain TNP041708) | Drug resistance (strain TNP041709) | Drug resistance (strain TNP041710) | Drug resistance (strain TNP041711) |
| --- | --- | --- | --- | --- | --- | --- | --- | --- | --- | --- |
| CC(C)(O/N=C(\C(=O)N[C@@H]1C(=O)N2C(C(=O)[O-])=C(C[n+]3ccccc3)CS[C@H]12)c1csc(N)n1)C(=O)O [Ceftazidime] | R | R | R | R | R | R | R | R | R | R |
| CO/N=C(\C(=O)N[C@@H]1C(=O)N2C(C(=O)O)=C(COC(N)=O)CS[C@H]12)c1ccco1 [Cefuroxime] | R | R | R | R | R | R | R | R | R | R |
| C[C@@H](O)[C@H]1C(=O)N2C(C(=O)O)=C(SCCN=CN)C[C@H]12 [Imipenem] | R | R | R | R | R | R | R | R | R | R |
| C[C@@H](O)[C@H]1C(=O)N2C(C(=O)O)=C(S[C@@H]3CN[C@H](C(=O)N(C)C)C3)[C@H](C)[C@H]12 [Meropenem] | R | R | R | R | R | R | R | R | R | R |
| CCN1CCN(C(=O)N[C@@H](C(=O)N[C@@H]2C(=O)N3[C@@H]2SC(C)(C)[C@@H]3C(=O)O)c2ccccc2)C(=O)C1=O [Piperacillin] | R | R | R | R | R | R | R | R | R | R |
| Gentamicin | R | R | R | R | S | R | R | R | R | R |

Reference: patent US12697325B2 (TENNOR THERAPEUTICS (SUZHOU) LIMITED, priority 2021, dated 2026)
